Results from article PMC12445744, “Molecular docking to homology models of human and Trypanosoma brucei ERK8 that identified ortholog-specific inhibitors” (PLOS Neglected Tropical Diseases, 2025).
Where “and” joins values, the source holds several entries; their conditions need not be identical. Equal entries are not always repeated.

Target: T1, TbERK8 (Trypanosoma brucei brucei, UniProt Q38B88)
T1 sequence (Q38B88 1-442): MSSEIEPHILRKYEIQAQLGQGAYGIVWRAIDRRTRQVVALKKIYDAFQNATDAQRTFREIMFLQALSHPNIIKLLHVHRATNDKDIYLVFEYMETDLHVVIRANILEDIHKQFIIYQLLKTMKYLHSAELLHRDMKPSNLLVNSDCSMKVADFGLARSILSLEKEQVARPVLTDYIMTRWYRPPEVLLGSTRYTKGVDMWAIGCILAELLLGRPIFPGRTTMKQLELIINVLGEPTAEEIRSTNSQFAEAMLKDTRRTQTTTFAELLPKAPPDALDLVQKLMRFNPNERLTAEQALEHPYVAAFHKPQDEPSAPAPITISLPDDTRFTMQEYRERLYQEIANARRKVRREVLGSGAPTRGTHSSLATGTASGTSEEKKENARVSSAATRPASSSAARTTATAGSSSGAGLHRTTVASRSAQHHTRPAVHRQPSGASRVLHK
Assay: Luciferase-based kinase inhibition assay (ATP luminescence), GST-tagged TbERK8 with MBP substrate
Format: biochemical
Parameters: raw luminescence, TbERK8: unit of the concentration uncertain
Conditions: for raw luminescence, TbERK8: sheet Kinase_glo_080924_IFPS (2), replicate wells, listed as Ida
Procedure: Escherichia coli strain Rosetta 2 (DE3) (Cat# 71397, MilliporeSigma, Burlington, MA) was transformed with the plasmid pGEX2T expressing the full-length hERK8 coding region or pGSTAg expressing the full-length TbERK8 coding region. One liter of Terrific Broth media containing 100 μg/ml Ampicillin and 30 μg/ml chloramphenicol in 2 L baffled flasks was inoculated with 25 mL from an overnight culture of Rosetta 2 strains harboring either the pGEX2T-hERK8 or pGSTAg-TbERK8 plasmid. Two baffled flasks were inoculated with each overnight strain and incubated and shaken at 175 RPM in a New Brunswick Innova 44R Incubator Shaker (Fischer Scientific, Pittsburgh, PA) at 37 °C until the cultures reached an O.D.600 of 0.94. Once the cultures in the flask reached the target O.D.600, the flasks were cooled to 4 °C in an ice water bath. The cooled cultures were induced by adding isopropyl β-D-1-thiogalactopyranoside (IPTG) to a final concentration of 0.1 mM and shaken at 16 °C for 16 hours at 175 RPM in a New Brunswick Innova 44R Incubator Shaker (Fischer Scientific, Pittsburgh, PA). On the next day, the cultures were pelleted by centrifugation at 9000 xg in a JLA 10.500 rotor (Beckman Coulter; Brea, CA), and the media was decanted. The pellet was flash-frozen in liquid nitrogen and then thawed on ice. The thawed pellet was resuspended in lysis buffer (25 mM Tris, 75 mM NaCl, 0.5% TritonX-100 and 0.5% Nonidet P-40, 1 mM phenylmethanesulfonyl fluoride, 1 mM benzamidine⋅HCl) and lysed using a microfluidizer M-110P from Microfluidics (Westwood, MA). The crude lysates were clarified by centrifugation at 140,000 xg in a 45Ti rotor (Beckman Coulter, Brea, CA) for 30 min at 4°C. The clarified lysate was loaded by gravity to a 3 mL glutathione agarose resin column (Cat# G-250–10, GOLDBIO, St. Louis, MO) formed in a 1.5 × 20 cm glass chromatography column (Cat# 7371522, Bio-Rad, Hercules, CA). The column was washed with 30 mL of PBS (pH 7.4) containing 1 mM DTT. Elution buffer (50 mM Tris buffer pH 8.0 containing 10 mM reduced glutathione and 1 mM DTT was added to the washed column), and 1 mL fractions were collected by gravity and examined by SDS-PAGE stained by Coomassie dye. Peak fractions pooled from the elution were dialyzed (4x 1:500 dilutions) in kinase buffer (30 mM Tris, pH 7.4, 10 mM MgCl2, 1 mM DTT, 5% glycerol).
We performed kinase assays in buffer K (30 mM Tris pH 7.4, 10 mM MgCl2, 1 mM DTT, 5% glycerol, 50 μM ATP, and 0.1 mg/mL BSA) at 30°C for 30 min in 30 μL reactions. GST-tagged HsERK8 and TbERK8 were tested using myelin basic protein (MBP) (Cat# 13–110, Millipore, Darmstadt, Germany) as the substrate at increasing concentrations to determine the optimal activity for the assay. ATP consumption was determined by adding equal volumes of the kinase assay reagent (Promega, Cat# V5601, Madison, WI) following the manufacturer’s protocol. Luminescence was measured using the microplate reader (SpectraMax L, Molecular Devices, Sunnyvale, CA).
These compounds were screened for kinase inhibition utilizing a luciferase-based assay. Briefly, the kinases were tested using MBP as the substrate at a 14-fold molar excess in 384-well flat-bottom white plates (BRANDTECH Scientific, Cat# 781681, Essex, CT). These compounds were tested at concentrations ranging from […] to 150 nM. The kinases plus MBP substrate reactions were incubated with each inhibitor for 30 minutes at 30°C. Equal volumes of kinase assay mix Promega (Cat# V5601, Madison, WI) were added to the kinase/inhibitor reaction after 30 minutes, following the manufacturer’s protocol. ATP luminescence was measured using a microplate reader (SpectraMax L, Molecular Devices, Sunnyvale, CA). IC50 values were calculated from assays done in triplicate by fitting the data using Prism 8.1.1 (GraphPad).

## CC(=O)[C@]1(O)Cc2c(O)c3c(c(O)c2[C@@H](O[C@H]2C[C@H](N)[C@H](O)[C@H](C)O2)C1)C(=O)c1ccccc1C3=O [Idarubicin]
0.00015 (unit uncertain) compound
  raw luminescence, TbERK8: 2715.27 RLU and 2728.74 RLU and 2394.11 RLU
0.00061 (unit uncertain) compound
  raw luminescence, TbERK8: 1071.28 RLU and 918.564 RLU and 956.744 RLU
0.00244 (unit uncertain) compound
  raw luminescence, TbERK8: 1109.46 RLU and 1118.45 RLU and 925.302 RLU
0.00977 (unit uncertain) compound
  raw luminescence, TbERK8: 992.678 RLU and 972.465 RLU and 952.252 RLU
0.03906 (unit uncertain) compound
  raw luminescence, TbERK8: 1019.63 RLU and 976.957 RLU and 1073.53 RLU
0.15625 (unit uncertain) compound
  raw luminescence, TbERK8: 1318.33 RLU and 1147.64 RLU and 1078.02 RLU
0.62500 (unit uncertain) compound
  raw luminescence, TbERK8: 2223.42 RLU and 1980.86 RLU and 1909 RLU
2.50000 (unit uncertain) compound
  raw luminescence, TbERK8: 2212.19 RLU and 2209.94 RLU and 2311.01 RLU
10.00000 (unit uncertain) compound, signal = ATP left
  raw luminescence, TbERK8: 619.862 RLU and 786.057 RLU and 752.369 RLU
Concentrations below 4.0 x10^-5 M (above this the red compound blocked luminescence)
  inhibitory effect on kinase activity of TbERK8: no detectible (n/d) inhibitory effect
